Data reported in patent US11083795B2, “Amorphous metal-organic frameworks” (Cambridge Enterprise Limited, priority 2015, dated 2021).

Experiments:
HeLa cells = assay: Drug cellular uptake by confocal microscopy; assay type: cell-based; conditions: 24 h incubation; frameworks 0.5 mg/mL, free calcein 0.075 mg/mL
Procedure: HeLa cells were seeded in a NUNC™ imaging four-well plate at a density of 1.11×10^5 cell/mL and incubated for 24 h at 37° C. with 5% CO2 in DMEM supplemented with 10% (v/v) Fetal Bovine Serum (FBS), 2 mM L-glutamine, 100 units/mL penicillin and 100 μg/mL streptomycin.
The cells were washed twice with PBS and incubated together with calcein-loaded crystalline Zr-containing metal-organic frameworks (0.5 mg/mL) for 24 h. The amorphous frameworks were obtained by mechanical amorphization of calcein-loaded crystalline Zr-containing metal-organic frameworks. The metal-organic frameworks were well-dispersed in culture media before they were added to the cells.
Untreated cell and free calcein (at a concentration of 0.075 mg/mL) were included as controls.
After incubation for 24 h, the cells were washed several times to remove the non-internalized particles. Cells then were incubated for 15 min with Hoechst 33342 (H33342) and 1× of CellMask™ Orange to stain the nucleus and cell membrane, respectively (each dye provided at a concentration of 5 μg/mL). The cells were then washed extensively to remove the dyes and fresh media (without phenol red) was added to each sample. Finally, the plate was placed on a Leica TCS SP5 confocal microscope for imaging. The microscope was equipped with 405 diode, argon and HeNe lasers. Leica LAS AF software was used to analyse the images.

rat = tested on: rat; set-up: lethal dose LD50: unit not given here; conditions: cited from earlier work

## O=C(O)CN(CC(=O)O)Cc1cc2c(cc1O)Oc1cc(O)c(CN(CC(=O)O)CC(=O)O)cc1C21OC(=O)c2ccccc21 [calcein]
HeLa cells
  calcein signal in HeLa cells by confocal microscopy: stained weakly in the form of bright vesicles

## CC(=O)[O-].CC(=O)[O-].[O-2].[Zr+4] [zirconyl acetate]
rat; in rats
  lethal dose LD50: ~4.1
rat; oral, rat model
  oral lethal dose, LD50: around 4.1 g/kg
